The record followed here is US5688787A, “Substituted β-lactam compounds useful as hypochlesterolemic agents and processes for the preparation thereof” (priority 1996, dated 1997).

Structures are written as SMILES. Where two headings read alike, the source gives them in different places.

The target of experiment [1] is T1, ACAT (Rattus norvegicus, UniProt Q7TQM4).
T1 construct: Rat liver microsomes are used as the source of ACAT; from tissue; host or cells: rat liver microsomes
T1 sequence (Q7TQM4 1-524): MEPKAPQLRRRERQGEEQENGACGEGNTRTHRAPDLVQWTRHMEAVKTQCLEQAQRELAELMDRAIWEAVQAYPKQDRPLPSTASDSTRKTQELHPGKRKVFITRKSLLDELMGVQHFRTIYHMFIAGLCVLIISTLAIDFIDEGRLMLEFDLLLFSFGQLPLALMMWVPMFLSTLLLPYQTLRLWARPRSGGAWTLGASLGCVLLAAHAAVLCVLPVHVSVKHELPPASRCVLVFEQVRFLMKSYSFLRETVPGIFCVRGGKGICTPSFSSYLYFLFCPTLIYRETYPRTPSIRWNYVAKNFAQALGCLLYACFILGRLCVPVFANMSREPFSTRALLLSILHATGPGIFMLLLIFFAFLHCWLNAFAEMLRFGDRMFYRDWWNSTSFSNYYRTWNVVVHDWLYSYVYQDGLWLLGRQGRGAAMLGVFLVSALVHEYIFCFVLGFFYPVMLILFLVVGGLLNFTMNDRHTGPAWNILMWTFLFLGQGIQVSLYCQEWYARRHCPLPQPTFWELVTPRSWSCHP
The experiment in a line: ACAT Assay (in vitro). In kind it is biochemical. Conditions: Conc. 10 µM; negative = apparent stimulation; read-out: ACAT (in vitro) % Inhib.
Description: This assay measures the activity of ACAT by measuring the ACAT-mediated transfer of tritiated oleic acid from acyl-CoA to cholesterol to give labelled cholesteryl oleate. Rat liver microsomes are used as the source of ACAT. Assays are performed in round bottom microtiterplates using a total incubation volume of 50 μL. […] The microtiterplate is then floated on the surface of a 37° C. water bath for fifteen minutes. Incubations are started by the addition of 3 μL ^3 H-acyl CoA (1 μCi/well, final concentration of 10 μM acyl CoA). The plate is then returned to the water bath for 15 minutes. The incubations are then terminated by application of 15 μL from each incubation to individual lanes on a thin layer plate (Silica Gel GF 20×20 cm). Standards are applied to several lanes so that the cholesteryl ester band can be identified. After drying, the plates am eluted with 90:10:1 petroleum ether:diethyl ether:acetic acid. The standards am visualized via iodine vapor, and the regions corresponding to cholesteryl ester are scraped into 7 mL scintillation vials. 4 mL of scintillant are added to each vial, and the radioactivity quantified. Background count is determined by the boiled controls. Full activity is determined by activity in the presence of vehicle. The percent inhibition is calculated by subtracting the background from both control and test samples, and the test value is calculated as a percentage of the control.
For the in vitro ACAT data, negative percent inhibition denotes apparent stimulation,while positive numbers denote inhibition.

Experiment [2] relates to Hyperlipidemic Hamster. In words: In Vivo Assay of Hypolipidemic Agents Using the Hyperlipidemic Hamster. Conditions: 7 days, percent change versus control, negative = lowering; for change in vivo at 50 mg/kg / change in vivo at 5 mg/kg / change in vivo at 10 mg/kg / change in vivo at 1 mg/kg / change in vivo at 3 mg/kg: Mesocricetus auratus, po, 168 h; for change in vivo at 50 mg/kg / % Reduction (in vivo) Cholest. Esters / % Reduction (in vivo) Serum Cholest.: 50 mg/kg once daily oral; for change in vivo at 5 mg/kg: 5 mg/kg once daily oral; for change in vivo at 10 mg/kg: 10 mg/kg once daily oral; for change in vivo at 1 mg/kg: 1 mg/kg once daily oral; for change in vivo at 3 mg/kg: 3 mg/kg once daily oral. The procedure, abridged:
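Hamsters, six per group, were fed chow with 0.5% cholesterol for seven days and given compound once daily by oral gavage in corn oil; controls received corn oil alone. Plasma (EDTA) and liver lipids were measured at sacrifice. Values are percent change versus control, so negative means lowering.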

The mark [3] stands for this setting: read-out: % Reduction (in vivo) Cholest. Esters.
The mark [4] stands for this setting: read-out: % Reduction (in vivo) Serum Cholest.

Consider `CC[C@]1(c2ccccc2)C(=O)N(c2ccc(OC)cc2)[C@H]1c1ccccc1` (relative stereo) [Example 1AA], for which the inhibition at 10 µM in experiment [1] is -36%.

Consider `CC[C@H]1C(=O)N(c2ccc(OC)cc2)[C@H]1c1ccccc1` (relative stereo) [Example 1AB], for which the inhibition at 10 µM in experiment [1] came out at 17%.

For the molecule `CC[C@H]1C(=O)N(c2ccc(OC)cc2)[C@@H]1c1ccccc1` (relative stereo) [Example 1AD], the inhibition at 10 µM in experiment [1] is -5%.

On to `CC[C@H]1C(=O)N(c2c(OC)cc(OC)cc2OC)[C@H]1c1ccccc1` (relative stereo) [Example 1AE], for which the inhibition at 10 µM in experiment [1] was -7%.

`CC[C@H]1C(=O)N(c2ccc(OC)cc2)[C@H]1C=Cc1ccccc1` (relative stereo) [Example 1AF]: the inhibition at 10 µM in experiment [1] amounted to 0%.

As to `COc1ccc(N2C(=O)[C@@H](C)[C@H]2c2ccccc2)cc1` (relative stereo) [Example 1AH], in experiment [1], the inhibition at 10 µM was 4%.

Consider `COc1ccc(N2C(=O)[C@@H](C)[C@@H]2c2ccccc2)cc1` (relative stereo) [Example 1AI], for which the inhibition at 10 µM in experiment [1] was found to be 27%.

Take `CCOC(=O)c1ccc([C@H]2[C@@H](CCCc3ccccc3)C(=O)N2c2ccc(OC)cc2)cc1` (relative stereo) [Example 24]: the change in vivo at 50 mg/kg in experiment [2] (setting [3]) is 0%; in experiment [2] (setting [4]) it was -17%.

Take `COc1ccc(N2C(=O)[C@H](CCCc3ccccc3)[C@H]2c2ccc(N(S(C)(=O)=O)S(C)(=O)=O)cc2)cc1` (relative stereo) [Example 25A]: the values for the change in vivo at 50 mg/kg in experiment [2] (setting [3]) and in experiment [2] (setting [4]) were 0% and -13%, respectively.

Take `COc1ccc(N2C(=O)[C@H](CCCc3ccccc3)[C@@H]2c2ccc(N(S(C)(=O)=O)S(C)(=O)=O)cc2)cc1` (relative stereo) [Example 25B]: the change in vivo at 50 mg/kg in experiment [2] (setting [3]) and in experiment [2] (setting [4]) was 0% throughout.

As to `COc1ccc(N2C(=O)[C@@H](CCCc3ccccc3)[C@@H]2c2ccc(NS(C)(=O)=O)cc2)cc1` (relative stereo) [Example 25C], the values for the change in vivo at 50 mg/kg in experiment [2] (setting [3]) and in experiment [2] (setting [4]) were -46% and -8%, respectively.

Regarding `COc1ccc(N2C(=O)[C@H](CCCc3ccccc3)[C@@H]2c2ccc(NS(C)(=O)=O)cc2)cc1` (relative stereo) [Example 25], the change in vivo at 50 mg/kg in experiment [2] (setting [3]) was -34%; in experiment [2] (setting [4]) it was -8%.

For the molecule `COc1ccc(N2C(=O)[C@H](CCCc3ccccc3)[C@H]2c2ccc(NC(C)=O)cc2)cc1` (relative stereo) [Example 26], the change in vivo at 50 mg/kg is -26% in experiment [2] (setting [3]) and -4% in experiment [2] (setting [4]).

As to `CON=Cc1ccc([C@H]2[C@H](CCCc3ccccc3)C(=O)N2c2ccc(OC)cc2)cc1` (relative stereo) [Example 27A], the change in vivo at 50 mg/kg was -42% in experiment [2] (setting [3]) and -15% in experiment [2] (setting [4]).

With `CON=Cc1ccc([C@H]2[C@@H](CCCc3ccccc3)C(=O)N2c2ccc(OC)cc2)cc1` (relative stereo) [Example 27], the change in vivo at 50 mg/kg in experiment [2] (setting [3]) is -36%; in experiment [2] (setting [4]) it was -12%.

For `COc1ccc(N2C(=O)[C@H](CCCc3ccccc3)[C@@H]2c2ccc(S)cc2)cc1` (relative stereo) [Example 28], the change in vivo at 50 mg/kg in experiment [2] (setting [3]) is 0%; in experiment [2] (setting [4]) it was -19%.

On to `COc1ccc(N2C(=O)[C@H](CCCc3ccccc3)[C@@H]2c2ccc(S(N)(=O)=O)cc2)cc1` (relative stereo) [Example 29], for which the change in vivo at 50 mg/kg in experiment [2] (setting [3]) is -24%; in experiment [2] (setting [4]) it was -22%.

Turning to `COc1ccc(N2C(=O)[C@H](CCCc3ccccc3)[C@@H]2c2ccc(C3OCCO3)cc2)cc1` (relative stereo) [Example 31], the figures for the change in vivo at 50 mg/kg in experiment [2] (setting [3]) and in experiment [2] (setting [4]) were -52% and -19%, respectively.

With `COc1ccc(N2C(=O)[C@H](CCCc3ccccc3)[C@H]2c2cc(I)c(O)c(I)c2)cc1` (relative stereo) [Example 32A], the change in vivo at 50 mg/kg in experiment [2] (setting [3]) and in experiment [2] (setting [4]) was 0% each time.

Consider `COc1ccc(N2C(=O)[C@H](CCCc3ccccc3)[C@H]2c2ccc(O)c(I)c2)cc1` (relative stereo) [Example 32], for which the change in vivo at 50 mg/kg in experiment [2] (setting [3]) and in experiment [2] (setting [4]) was 0% in each case.

Regarding `COc1ccc([C@@H]2[C@@H](CCCc3ccc(N=[N+]=[N-])cc3)C(=O)N2c2ccc(OC)cc2)cc1` (relative stereo) [Example 33], the change in vivo at 50 mg/kg in experiment [2] (setting [3]) and in experiment [2] (setting [4]) was 0% throughout.

As to `CCOC(=O)COc1ccc([C@H]2[C@@H](CCCc3ccccc3)C(=O)N2c2ccc(OC)cc2)cc1` (relative stereo) [Example 35A], the change in vivo at 50 mg/kg is -84% in experiment [2] (setting [3]) and -34% in experiment [2] (setting [4]).

For `COc1ccc([C@@H]2[C@@H]([C@H]3C[C@H]3Cc3ccccc3)C(=O)N2c2ccc(OC)cc2)cc1` (relative stereo) [Example 36], the change in vivo at 50 mg/kg was -94% in experiment [2] (setting [3]) and -53% in experiment [2] (setting [4]).

In the case of `COc1ccc(N2C(=O)C(CCCc3ccccc3)C2c2ccc(C3OCCO3)cc2)cc1` (centres unmarked) [Example 1AX], in experiment [2], the “% Reduction (in vivo) Cholest. Esters” value was -52% and the “% Reduction (in vivo) Serum Cholest.” value is -16%.

Take `COc1ccc(C2C(CCCc3ccccc3)C(=O)N2c2ccc(OC)cc2)cc1` (centres unmarked) [Example 1]: in experiment [2] (setting [3]), the change in vivo at 5 mg/kg stood at 0%, the change in vivo at 10 mg/kg was -55% and the change in vivo at 50 mg/kg is -95%. Moreover, in experiment [2] (setting [4]), the change in vivo at 5 mg/kg is 0%, the change in vivo at 10 mg/kg was -17% and the change in vivo at 50 mg/kg was -45%.

`COc1ccc([C@H]2[C@@H](CCCc3ccccc3)C(=O)N2c2ccc(OC)cc2)cc1` [Example 2A]: the change in vivo at 50 mg/kg in experiment [2] (setting [3]) and in experiment [2] (setting [4]) was 0% throughout.

For the molecule `COc1ccc([C@@H]2[C@H](CCCc3ccccc3)C(=O)N2c2ccc(OC)cc2)cc1` [Example 2], in experiment [2] (setting [3]), the change in vivo at 5 mg/kg is -37% and the change in vivo at 10 mg/kg was -69%. Moreover, in experiment [2] (setting [4]), the change in vivo at 5 mg/kg was -15% and the change in vivo at 10 mg/kg was -28%.

Regarding `COc1ccc(C2C(CCCc3ccccc3)C(=O)N2c2ccc(Oc3ccccc3)cc2)cc1` (centres unmarked) [Example 5K], the change in vivo at 50 mg/kg in experiment [2] (setting [3]) was -49%; in experiment [2] (setting [4]), -28%.

`COc1ccc([C@@H]2[C@@H](CCCc3ccccc3)C(=O)N2c2ccccc2)cc1` [Example 5L]: in experiment [2] (setting [3]), the change in vivo at 1 mg/kg was -64%, the change in vivo at 3 mg/kg is -84% and the change in vivo at 10 mg/kg is -95%. For the same molecule, in experiment [2] (setting [4]), the change in vivo at 1 mg/kg is -54%, the change in vivo at 3 mg/kg was -39% and the change in vivo at 10 mg/kg is -50%.

Take `COc1ccc([C@H]2[C@H](CCCc3ccccc3)C(=O)N2c2ccccc2)cc1` [Example 5M]: in experiment [2] (setting [3]), the change in vivo at 3 mg/kg was determined as 0%, the change in vivo at 10 mg/kg was -36% and the change in vivo at 50 mg/kg was -50%. In addition, in experiment [2] (setting [4]), the change in vivo at 3 mg/kg is -12%, the change in vivo at 10 mg/kg is -8% and the change in vivo at 50 mg/kg was -20%.

Take `COc1ccc([C@@H]2[C@@H](CCCc3ccccc3)C(=O)N2c2ccc(OC)cc2)cc1` [Example 9, (3R,4S)-1,4-bis-(4-methoxyphenyl)-3-(3-phenylpropyl)-2-azetidinone]: in experiment [2] (setting [3]), the change in vivo at 3 mg/kg was -68%, the change in vivo at 5 mg/kg was -66% and the change in vivo at 10 mg/kg is -93%. In addition, in experiment [2] (setting [4]), the change in vivo at 3 mg/kg was -25%, the change in vivo at 5 mg/kg is -21.5% and the change in vivo at 10 mg/kg is -43%.

Consider `COc1ccc(N2C(=O)C(CCCc3ccccc3)C2c2ccc(C3OCCO3)cc2)cc1` (centres unmarked) [Example 31A], for which, in experiment [2], the “% Reduction (in vivo) Cholest. Esters” value is on record as 0% and the “% Reduction (in vivo) Serum Cholest.” value was determined as 0%.

As for `COC(=O)CCC(=O)Oc1ccc(C2C(CCCc3ccccc3)C(=O)N2c2ccc(OC)cc2)cc1` (centres unmarked) [Example 34], the change in vivo at 50 mg/kg in experiment [2] (setting [3]) was -94%; in experiment [2] (setting [4]), -39%.
